Converted amounts (≈) assume the structure as drawn. Residues, ends and D or L forms follow the SMILES beside them.
Key:
MT-4 cells = assay: Cytotoxicity to MT-4 cells (MTT method); format: cell-based; conditions: 12000 ng/ml to 24 ng/ml, 6 days
Description: Then test drugs were added. […] Cell growth was subsequently determined by the MTT method.

No.04 coronavirus [1] = system: No.04 coronavirus
No.04 coronavirus [2] = assay: microbe, parasite or virus in culture; conditions: Severe acute respiratory syndrome coronavirus

## CC(C)C[C@H](NC(=O)[C@H](CCCCN)NC(=O)[C@@H](N)Cc1ccc(O)cc1)C(=O)N1CCC[C@H]1C(=O)NCC(=O)N[C@@H](Cc1c[nH]cn1)C(=O)N[C@@H](Cc1c[nH]cn1)C(=O)N[C@@H](Cc1c[nH]cn1)C(=O)N[C@@H](Cc1c[nH]cn1)C(=O)N[C@@H](Cc1ccc(O)cc1)C(=O)N[C@@H](CCCNC(=N)N)C(=O)N1CCC[C@H]1C(=O)O [HAb18G-AP-9] (H-YKLPGHHHHYRP-OH)
MT-4 cells
  cell growth of MT-4 cells (in words): cell growth was not affected

## Nc1nc(O)c2ncn(COC(CO)CO)c2n1 [Ganciclovir, ganciclovir]
No.04 coronavirus [1]; CPE method, 293 cells
  treatment index (TI): 256
No.04 coronavirus [2]; HEK293, read-out: half-inhibitory concentration (IC50)
  IC50: 11.7 µg/mL (≈ 45.8 µM)
No.04 coronavirus [2]; read-out: minimum inhibitory concentration (MIC)
  MIC: 23.4 µg/mL (≈ 91.8 µM)

## CC[C@H](C)[C@H](NC(=O)[C@@H](NC(=O)[C@@H]1CCCN1C(=O)[C@H](CC(=O)O)NC(=O)[C@H](Cc1c[nH]cn1)NC(=O)[C@@H](NC(=O)[C@@H](N)CCSC)[C@@H](C)O)C(C)C)C(=O)N[C@@H](CO)C(=O)N[C@@H](CC(C)C)C(=O)N1CCC[C@H]1C(=O)N[C@H](C(=O)N[C@H](C(=O)O)[C@@H](C)O)[C@@H](C)O [HAb18G-AP-1] (H-MTHDPVISLPTT-OH)
MT-4 cells
  cell growth of MT-4 cells (in words): cell growth was not affected

## N=C(N)NCCC[C@H](NC(=O)[C@H](Cc1c[nH]cn1)NC(=O)[C@H](Cc1c[nH]c2ccccc12)NC(=O)[C@H](Cc1c[nH]cn1)NC(=O)[C@H](CCCCN)NC(=O)[C@H](Cc1c[nH]cn1)NC(=O)[C@H](Cc1c[nH]cn1)NC(=O)[C@H](Cc1ccccc1)NC(=O)[C@@H]1CCCN1C(=O)[C@@H](N)Cc1ccc(O)cc1)C(=O)N1CCC[C@H]1C(=O)N[C@@H](CC(N)=O)C(=O)O [HAb18G-AP-6, Tyr Pro Phe His His Lys His Typ His Arg Pro Asn] (H-YPFHHKHWHRPN-OH)
MT-4 cells
  cell growth of MT-4 cells (in words): cell growth was not affected
No.04 coronavirus [1]; 24 h
  half-inhibitory concentration (IC50): 31.25 ± 0 µg/mL
  minimum inhibitory concentration (MIC): 62.25 ± 0 µg/mL (≈ 37.6 µM)

Reference: patent US20070003565A1 (priority 2003, published 2007)
